In ChEMBL document CHEMBL4041516, “SAR study of 5-alkynyl substituted quinazolin-4(3H)-ones as phosphoinositide 3-kinase delta (PI3Kδ) inhibitors” (Eur J Med Chem, 2017):

Assays:
[1] = molecular target: T1, Phosphatidylinositol 4,5-bisphosphate 3-kinase catalytic subunit delta isoform (Homo sapiens, UniProt O00329); assay: Inhibition of PI3Kdelta (unknown origin) using PIP2 as substrate measured after 30 mins by HTRF assay
T1 sequence (O00329 whole entry): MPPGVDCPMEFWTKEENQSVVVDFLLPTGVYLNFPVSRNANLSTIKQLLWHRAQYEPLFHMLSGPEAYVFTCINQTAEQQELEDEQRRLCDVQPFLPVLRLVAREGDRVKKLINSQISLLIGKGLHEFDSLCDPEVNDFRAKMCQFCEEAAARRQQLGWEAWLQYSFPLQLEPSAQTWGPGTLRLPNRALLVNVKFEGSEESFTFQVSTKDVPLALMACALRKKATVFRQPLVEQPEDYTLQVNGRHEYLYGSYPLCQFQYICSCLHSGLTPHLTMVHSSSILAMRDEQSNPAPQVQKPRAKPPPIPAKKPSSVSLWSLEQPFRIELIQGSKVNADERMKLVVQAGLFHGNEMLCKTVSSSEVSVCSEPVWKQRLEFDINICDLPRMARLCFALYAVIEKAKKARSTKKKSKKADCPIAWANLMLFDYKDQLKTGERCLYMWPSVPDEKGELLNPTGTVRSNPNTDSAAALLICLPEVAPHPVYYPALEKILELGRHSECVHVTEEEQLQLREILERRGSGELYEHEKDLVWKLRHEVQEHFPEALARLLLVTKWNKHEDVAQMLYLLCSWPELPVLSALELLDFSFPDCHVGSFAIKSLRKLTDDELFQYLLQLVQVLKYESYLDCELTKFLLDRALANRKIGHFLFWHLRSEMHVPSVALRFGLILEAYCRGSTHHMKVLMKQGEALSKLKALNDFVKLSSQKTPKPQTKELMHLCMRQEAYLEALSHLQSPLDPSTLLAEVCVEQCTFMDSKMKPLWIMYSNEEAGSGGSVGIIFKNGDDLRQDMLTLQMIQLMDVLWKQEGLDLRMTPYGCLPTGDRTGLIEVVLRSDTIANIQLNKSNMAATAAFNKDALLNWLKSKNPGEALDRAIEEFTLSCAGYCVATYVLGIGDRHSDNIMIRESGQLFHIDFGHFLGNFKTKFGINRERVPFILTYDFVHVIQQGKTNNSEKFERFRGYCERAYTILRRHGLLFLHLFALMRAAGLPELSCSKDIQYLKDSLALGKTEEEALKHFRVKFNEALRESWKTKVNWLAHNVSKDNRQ

[2] = system: SU-DHL-6; assay: Antiproliferative activity against human SUDHL6 cells measured after 72 hrs by alamar blue assay; format: functional, cell-based; conditions: SU-DHL-6, 72 h
[3] = molecular target: Phosphatidylinositol 4,5-bisphosphate 3-kinase catalytic subunit gamma isoform (Homo sapiens, UniProt P48736); assay: Inhibition of PI3Kgamma (unknown origin) using PIP2 as substrate measured after 30 mins by HTRF assay
Chain of Phosphatidylinositol 4,5-bisphosphate 3-kinase catalytic subunit gamma isoform (P48736 whole entry, canonical isoform): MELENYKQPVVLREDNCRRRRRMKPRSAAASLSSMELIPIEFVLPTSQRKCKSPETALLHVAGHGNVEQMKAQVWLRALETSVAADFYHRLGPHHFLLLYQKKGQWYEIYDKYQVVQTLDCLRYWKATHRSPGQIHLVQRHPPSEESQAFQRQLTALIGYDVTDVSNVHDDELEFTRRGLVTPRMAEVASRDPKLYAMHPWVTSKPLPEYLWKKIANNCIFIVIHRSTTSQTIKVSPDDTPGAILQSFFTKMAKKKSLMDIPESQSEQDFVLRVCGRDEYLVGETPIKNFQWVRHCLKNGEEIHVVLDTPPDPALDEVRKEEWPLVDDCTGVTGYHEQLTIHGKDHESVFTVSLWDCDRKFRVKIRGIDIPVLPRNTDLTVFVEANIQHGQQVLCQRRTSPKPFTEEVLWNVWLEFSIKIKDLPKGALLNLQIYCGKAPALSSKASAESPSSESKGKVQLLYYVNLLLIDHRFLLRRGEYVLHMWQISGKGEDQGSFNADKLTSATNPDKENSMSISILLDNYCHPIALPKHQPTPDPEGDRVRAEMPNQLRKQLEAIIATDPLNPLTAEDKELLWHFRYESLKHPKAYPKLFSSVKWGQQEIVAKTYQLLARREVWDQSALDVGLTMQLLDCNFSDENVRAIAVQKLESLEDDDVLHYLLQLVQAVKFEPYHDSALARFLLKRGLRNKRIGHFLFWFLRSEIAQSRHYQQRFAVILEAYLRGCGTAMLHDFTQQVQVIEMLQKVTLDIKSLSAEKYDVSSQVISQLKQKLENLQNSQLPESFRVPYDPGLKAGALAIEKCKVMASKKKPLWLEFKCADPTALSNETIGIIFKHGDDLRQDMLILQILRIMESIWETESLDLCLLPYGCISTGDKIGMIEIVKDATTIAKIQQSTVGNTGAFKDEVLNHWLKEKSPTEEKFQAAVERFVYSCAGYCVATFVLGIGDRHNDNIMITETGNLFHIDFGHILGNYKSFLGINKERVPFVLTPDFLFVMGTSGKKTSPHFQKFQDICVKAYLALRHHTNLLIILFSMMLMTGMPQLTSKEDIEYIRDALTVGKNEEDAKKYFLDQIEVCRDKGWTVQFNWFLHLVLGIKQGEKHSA

[4] = molecular target: Phosphatidylinositol 4,5-bisphosphate 3-kinase catalytic subunit alpha isoform (Homo sapiens, UniProt P42336); assay: Inhibition of PI3Kalpha (unknown origin) using PIP2 as substrate measured after 30 mins by HTRF assay
Chain of Phosphatidylinositol 4,5-bisphosphate 3-kinase catalytic subunit alpha isoform (P42336 whole entry, canonical isoform): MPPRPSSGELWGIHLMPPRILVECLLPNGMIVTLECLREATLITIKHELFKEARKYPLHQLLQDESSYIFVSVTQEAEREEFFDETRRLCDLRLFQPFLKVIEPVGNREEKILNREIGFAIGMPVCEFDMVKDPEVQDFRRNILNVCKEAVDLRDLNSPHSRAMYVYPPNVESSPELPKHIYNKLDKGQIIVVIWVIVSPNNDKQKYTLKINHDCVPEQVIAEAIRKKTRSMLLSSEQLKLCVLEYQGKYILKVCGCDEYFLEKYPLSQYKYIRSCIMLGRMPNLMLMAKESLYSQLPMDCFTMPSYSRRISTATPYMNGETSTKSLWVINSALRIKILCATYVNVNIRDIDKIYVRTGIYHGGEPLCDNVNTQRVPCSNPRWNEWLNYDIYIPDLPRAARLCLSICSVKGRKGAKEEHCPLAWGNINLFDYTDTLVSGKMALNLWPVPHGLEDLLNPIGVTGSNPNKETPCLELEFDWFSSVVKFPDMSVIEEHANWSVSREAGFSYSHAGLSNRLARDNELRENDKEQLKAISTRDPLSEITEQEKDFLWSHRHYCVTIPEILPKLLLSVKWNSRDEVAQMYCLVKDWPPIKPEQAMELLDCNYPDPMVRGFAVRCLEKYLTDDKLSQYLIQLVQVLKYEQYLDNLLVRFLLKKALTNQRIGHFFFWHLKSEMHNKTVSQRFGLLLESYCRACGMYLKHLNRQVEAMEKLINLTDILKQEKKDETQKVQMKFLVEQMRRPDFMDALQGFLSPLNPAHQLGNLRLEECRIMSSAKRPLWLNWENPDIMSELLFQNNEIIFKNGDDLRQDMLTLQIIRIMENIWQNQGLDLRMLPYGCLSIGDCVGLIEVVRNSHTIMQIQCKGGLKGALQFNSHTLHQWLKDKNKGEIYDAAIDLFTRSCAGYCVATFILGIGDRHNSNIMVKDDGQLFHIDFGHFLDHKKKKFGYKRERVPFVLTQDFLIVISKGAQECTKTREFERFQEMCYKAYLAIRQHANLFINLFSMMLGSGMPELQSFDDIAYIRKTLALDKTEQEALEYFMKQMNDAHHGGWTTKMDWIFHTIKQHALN

[5] = molecular target: Phosphatidylinositol 4,5-bisphosphate 3-kinase catalytic subunit beta isoform (Homo sapiens, UniProt P42338); assay: Inhibition of PI3Kbeta (unknown origin) using PIP2 as substrate measured after 30 mins by HTRF assay
Chain of Phosphatidylinositol 4,5-bisphosphate 3-kinase catalytic subunit beta isoform (P42338 whole entry, canonical isoform): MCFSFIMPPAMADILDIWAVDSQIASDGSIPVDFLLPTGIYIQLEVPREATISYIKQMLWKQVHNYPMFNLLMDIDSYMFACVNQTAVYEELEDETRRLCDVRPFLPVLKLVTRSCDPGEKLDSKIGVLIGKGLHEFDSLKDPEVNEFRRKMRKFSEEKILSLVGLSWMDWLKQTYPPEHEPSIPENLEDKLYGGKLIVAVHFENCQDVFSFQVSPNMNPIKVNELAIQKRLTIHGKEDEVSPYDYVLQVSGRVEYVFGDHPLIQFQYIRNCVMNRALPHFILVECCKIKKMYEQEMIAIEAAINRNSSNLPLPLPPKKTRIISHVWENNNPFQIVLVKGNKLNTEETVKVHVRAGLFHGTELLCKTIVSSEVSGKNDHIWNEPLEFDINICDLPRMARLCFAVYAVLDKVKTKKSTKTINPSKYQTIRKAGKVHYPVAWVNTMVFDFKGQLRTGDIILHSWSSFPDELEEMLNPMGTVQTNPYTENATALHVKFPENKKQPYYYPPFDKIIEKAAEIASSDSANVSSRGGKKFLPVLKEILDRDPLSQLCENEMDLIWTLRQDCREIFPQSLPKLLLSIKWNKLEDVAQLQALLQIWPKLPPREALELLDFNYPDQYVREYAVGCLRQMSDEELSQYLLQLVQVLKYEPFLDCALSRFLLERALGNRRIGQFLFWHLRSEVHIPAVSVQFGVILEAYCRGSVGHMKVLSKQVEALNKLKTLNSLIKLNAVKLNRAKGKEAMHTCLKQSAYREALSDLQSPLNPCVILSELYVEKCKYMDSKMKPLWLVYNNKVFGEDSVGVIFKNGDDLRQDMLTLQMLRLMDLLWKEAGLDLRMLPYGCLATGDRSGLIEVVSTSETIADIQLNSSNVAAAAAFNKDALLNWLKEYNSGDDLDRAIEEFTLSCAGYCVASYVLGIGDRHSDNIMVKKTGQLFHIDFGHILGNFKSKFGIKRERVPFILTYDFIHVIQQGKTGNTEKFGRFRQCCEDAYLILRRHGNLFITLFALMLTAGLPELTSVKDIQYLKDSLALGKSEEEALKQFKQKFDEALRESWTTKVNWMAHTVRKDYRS

[6] = system: KARPAS-422; assay: Antiproliferative activity against human KARPAS422 cells measured after 72 hrs by alamar blue assay; format: functional, cell-based; conditions: KARPAS-422, 72 h
[7] = Antiproliferative activity against human WSU-DLCL2 cells measured after 72 hrs by alamar blue assay; format: functional, cell-based; conditions: WSUDLCL2, 72 h
[8] = system: HT; assay: Antiproliferative activity against human HT cells measured after 72 hrs by alamar blue assay; format: functional, cell-based
[9] = system: Pfeiffer; assay: Antiproliferative activity against human Pfeiffer cells measured after 72 hrs by alamar blue assay; format: functional, cell-based
[10] = system: NAMALVA; assay: Antiproliferative activity against human NAMALWA cells measured after 72 hrs by alamar blue assay; format: functional, cell-based
[11] = system: SU-DHL-1; assay: Antiproliferative activity against human SU-DHL1 cells measured after 72 hrs by alamar blue assay; format: functional, cell-based; conditions: SU-DHL-1, 72 h
[12] = system: SUD4; assay: Antiproliferative activity against human SU-DHL4 cells measured after 72 hrs by alamar blue assay; format: functional, cell-based; conditions: SU-DHL-4, 72 h
[13] = system: SU-DHL10; assay: Antiproliferative activity against human SU-DHL10 cells measured after 72 hrs by alamar blue assay; format: functional, cell-based; conditions: SU-DHL10, 72 h
[14] = system: MOLT-4; assay: Antiproliferative activity against human MOLT4 cells measured after 72 hrs by alamar blue assay; format: functional, cell-based; conditions: MOLT-4, 72 h
[15] = molecular target: T2, Voltage-gated inwardly rectifying potassium channel KCNH2 (Homo sapiens, UniProt Q12809); assay: Inhibition of human ERG
T2 sequence (Q12809 whole entry): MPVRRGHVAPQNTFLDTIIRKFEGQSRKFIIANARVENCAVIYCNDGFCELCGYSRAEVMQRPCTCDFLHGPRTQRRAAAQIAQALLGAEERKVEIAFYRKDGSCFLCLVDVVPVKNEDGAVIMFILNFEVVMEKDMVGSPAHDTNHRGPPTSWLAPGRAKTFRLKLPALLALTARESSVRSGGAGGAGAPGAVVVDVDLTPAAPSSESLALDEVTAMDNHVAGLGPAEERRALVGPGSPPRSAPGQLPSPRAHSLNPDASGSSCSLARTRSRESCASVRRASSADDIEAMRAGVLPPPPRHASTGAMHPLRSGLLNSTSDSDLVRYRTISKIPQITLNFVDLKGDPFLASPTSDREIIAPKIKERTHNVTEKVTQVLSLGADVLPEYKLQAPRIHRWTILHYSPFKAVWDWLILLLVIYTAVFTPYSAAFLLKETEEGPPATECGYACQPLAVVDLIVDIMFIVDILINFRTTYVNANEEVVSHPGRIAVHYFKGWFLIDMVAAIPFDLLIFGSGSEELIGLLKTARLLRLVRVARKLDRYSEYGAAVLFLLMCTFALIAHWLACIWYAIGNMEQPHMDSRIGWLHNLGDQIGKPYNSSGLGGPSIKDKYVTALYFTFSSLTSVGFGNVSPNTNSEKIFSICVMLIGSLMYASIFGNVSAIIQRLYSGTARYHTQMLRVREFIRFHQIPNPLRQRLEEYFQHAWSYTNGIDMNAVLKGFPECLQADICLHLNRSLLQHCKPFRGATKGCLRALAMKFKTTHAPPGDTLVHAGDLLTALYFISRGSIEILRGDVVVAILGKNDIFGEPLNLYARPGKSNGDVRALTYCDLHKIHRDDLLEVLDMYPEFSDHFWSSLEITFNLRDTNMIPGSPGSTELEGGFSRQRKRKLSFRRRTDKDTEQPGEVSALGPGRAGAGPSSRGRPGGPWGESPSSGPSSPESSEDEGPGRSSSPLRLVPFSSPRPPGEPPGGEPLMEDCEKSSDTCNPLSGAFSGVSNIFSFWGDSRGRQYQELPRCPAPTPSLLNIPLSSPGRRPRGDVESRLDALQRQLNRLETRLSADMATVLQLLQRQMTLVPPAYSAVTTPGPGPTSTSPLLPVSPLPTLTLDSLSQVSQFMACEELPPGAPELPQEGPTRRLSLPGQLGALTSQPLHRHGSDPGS

[16] = molecular target: T2, Voltage-gated inwardly rectifying potassium channel KCNH2; assay: (§1) Inhibition of human ERG at 40 uM relative to control; conditions: 40 µM
[17] = molecular target: hERG (KCNH2) (Homo sapiens, UniProt Q12809); assay: as §1

SMILES | IC50 [1] [nM] | IC50 [2] [nM] | further results
N#Cc1c(N)ncnc1N1CCC[C@H]1c1nc2cccc(C#CCN3CCOCC3)c2c(=O)n1-c1ccccc1 | 107 | 1160 | 
N#Cc1c(N)ncnc1N1CC[C@H]1c1nc2cccc(C#CCCCC(=O)N3CCOCC3)c2c(=O)n1-c1ccccc1 | 620 | 7320 | 
N#Cc1c(N)ncnc1N1CCC[C@H]1c1nc2cccc(C#Cc3cccc(F)c3)c2c(=O)n1-c1ccccc1 | > 300 | 3860 | 
Nc1nc(N)nc(N2CCC[C@H]2c2nc3cccc(C#CCCCC(=O)N4CCOCC4)c3c(=O)n2-c2ccccc2)n1 | > 300 | > 10000 | 
CC(C)N1CCN(Cc2cnc(C#Cc3cccc4nc([C@@H]5CCCN5c5ncnc(N)c5C#N)n(-c5ccccc5)c(=O)c34)s2)CC1 | > 300 | 1150 | 
N#Cc1c(N)ncnc1N1CCC[C@H]1c1nc2cccc(C#Cc3cccs3)c2c(=O)n1-c1ccccc1 | 41.5 | 1680 | 
CC[C@H](Nc1ncnc(N)c1C#N)c1nc2cccc(C#CCCCC(=O)N3CCCC3)c2c(=O)n1-c1ccccc1 | 112 | 1900 | 
N#Cc1c(N)ncnc1N1CCC[C@H]1c1nc2cccc(C#CCN3C[C@@H]4C[C@H]3CN4)c2c(=O)n1-c1ccccc1 | 135 | 1260 | 
CC[C@H](Nc1ncnc(N)c1C#N)c1nc2cccc(C#CCCCC(=O)N3CCOCC3)c2c(=O)n1-c1ccccc1 | 96.8 | 1430 | 
CC(COC(F)F)N1CCN(CC#Cc2cccc3nc([C@@H]4CCCN4c4ncnc(N)c4C#N)n(-c4ccccc4)c(=O)c23)CC1 (some centres not stated) | 188 | 2000 | 
N#Cc1c(N)ncnc1N1CCC[C@H]1c1nc2cccc(C#Cc3cccnc3)c2c(=O)n1-c1ccccc1 | > 300 | 1730 | 
CC(C)(F)CN1CCN(CC#Cc2cccc3nc([C@@H]4CCCN4c4ncnc(N)c4C#N)n(-c4ccccc4)c(=O)c23)CC1 | 170 | 2820 | 
CCOC(=O)c1cnc(C#Cc2cccc3nc([C@@H]4CCCN4c4ncnc(N)c4C#N)n(-c4ccccc4)c(=O)c23)s1 | > 300 | > 10000 | 
CC(F)CN1CCN(CC#Cc2cccc3nc([C@@H]4CCCN4c4ncnc(N)c4C#N)n(-c4ccccc4)c(=O)c23)CC1 (some centres not stated) | 80.2 | 1410 | 
N#Cc1c(N)ncnc1N1CCC[C@H]1c1nc2cccc(C#Cc3ccccn3)c2c(=O)n1-c1ccccc1 | > 300 | 1900 | 
CC[C@H](Nc1ncnc2[nH]cnc12)c1nc2cccc(C#CCCCC(=O)N3CCOCC3)c2c(=O)n1-c1ccccc1 | 110 | 1180 | 
N#Cc1c(N)ncnc1N1CC[C@H]1c1nc2cccc(C#CCCCC(=O)N3CCCC3)c2c(=O)n1-c1ccccc1 | 440 | 7840 | 

Further molecules by falling IC50 [2], results first:

IC50 [1] [nM] | IC50 [2] [nM] | SMILES | further results
70 | 1120 | N#Cc1c(N)ncnc1N1CCC[C@H]1c1nc2cccc(C#CC(=O)N3CCOCC3)c2c(=O)n1-c1ccccc1 | 
19.6 | 862 | Cc1nc(N)nc(N2CC[C@H]2c2nc3cccc(C#CCCCC(=O)N4CCCC4)c3c(=O)n2-c2ccccc2)c1C#N | 
141 | 724 | N#Cc1c(N)ncnc1N1CCC[C@H]1c1nc2cccc(C#CCN3CCC(C4CC(F)(F)C4)CC3)c2c(=O)n1-c1ccccc1 | 
107 | 705 | N#Cc1c(N)ncnc1N1CCC[C@H]1c1nc2cccc(C#CCN3CCN(CC4CC4)CC3)c2c(=O)n1-c1ccccc1 | 
16.8 | 640 | Cc1nc(N)nc(N2CC[C@H]2c2nc3cccc(C#CCCCC(=O)N4CCOCC4)c3c(=O)n2-c2ccccc2)c1C#N | 
78.1 | 526 | N#Cc1c(N)ncnc1N1CCC[C@H]1c1nc2cccc(C#CCN3CCC(C4CC(F)C4)CC3)c2c(=O)n1-c1ccccc1 (some centres not stated) | 
60.2 | 372 | C=CC(O)C(C)(C)N1CCN(CC#Cc2cccc3nc([C@@H]4CCCN4c4ncnc(N)c4C#N)n(-c4ccccc4)c(=O)c23)CC1 (some centres not stated) | 
67.1 | 339 | CC(C)(CO)N1CCN(CC#Cc2cccc3nc([C@@H]4CCCN4c4ncnc(N)c4C#N)n(-c4ccccc4)c(=O)c23)CC1 | 
43 | 282 | CC(C)(C)N1CCN(CC#Cc2cccc3nc([C@@H]4CCCN4c4ncnc(N)c4C#N)n(-c4ccccc4)c(=O)c23)CC1 | 
97.7 | 216 | CC(C)(C)N1CCN(C(=O)C#Cc2cccc3nc([C@@H]4CCCN4c4ncnc(N)c4C#N)n(-c4ccccc4)c(=O)c23)CC1 | 
11.8 | 178 | Cc1nc(N)nc(N2CCC[C@H]2c2nc3cccc(C#CCCCC(=O)N4CCOCC4)c3c(=O)n2-c2ccccc2)c1C#N | 
 | 118 | CC[C@H](Nc1ncnc2[nH]cnc12)c1nc2cccc(F)c2c(=O)n1-c1ccccc1 [IDELALISIB] | IC50 [6]: 8100 nM; IC50 [7]: > 10000 nM; IC50 [8]: > 10000 nM; IC50 [9]: 6800 nM; IC50 [10]: > 10000 nM; IC50 [11]: > 10000 nM; IC50 [13]: > 10000 nM; IC50 [14]: > 10000 nM
11.5 | 99 | N#Cc1c(N)ncnc1N1CCC[C@H]1c1nc2cccc(C#CCCCC(=O)N3CCCC3)c2c(=O)n1-c1ccccc1 | 
7.1 | 58.9 | Cc1nc(N)nc(N2CCC[C@H]2c2nc3cccc(C#CCCCC(=O)N4CCCC4)c3c(=O)n2-c2ccccc2)c1C#N | IC50 [3]: 132 nM; IC50 [4]: 1480 nM; IC50 [5]: 2020 nM; IC50 [6]: 4300 nM; IC50 [7]: > 10000 nM; IC50 [8]: > 10000 nM; IC50 [9]: 4400 nM; IC50 [10]: 5900 nM; IC50 [11]: > 10000 nM; IC50 [12]: 4000 nM; IC50 [13]: 4500 nM; IC50 [14]: 6700 nM; IC50 [15]: Nd(Insoluble); inhibition (INH) [16]: Nd(Insoluble)
6.73 | 37.2 | CC[C@H](Nc1nc(N)nc(N)c1C#N)c1nc2cccc(C#CCCCC(=O)N3CCCC3)c2c(=O)n1-c1ccccc1 | IC50 [3]: 125 nM; IC50 [4]: 624 nM; IC50 [5]: 530 nM; IC50 [6]: 2100 nM; IC50 [7]: 6800 nM; IC50 [8]: 7900 nM; IC50 [9]: 2200 nM; IC50 [10]: 6200 nM; IC50 [11]: 4900 nM; IC50 [12]: 1700 nM; IC50 [13]: 1800 nM; IC50 [14]: 6700 nM; IC50 ([15]; read-out: IC50): > 40000 nM; inhibition at 40 µM [17]: 39.3%
13.8 | 27.6 | N#Cc1c(N)ncnc1N1CCC[C@H]1c1nc2cccc(C#CCCCC(=O)N3CCOCC3)c2c(=O)n1-c1ccccc1 | IC50 [3]: 291 nM; IC50 [4]: 3110 nM; IC50 [5]: 1650 nM; IC50 [6]: 11600 nM; IC50 [7]: > 10000 nM; IC50 [8]: > 10000 nM; IC50 [9]: 7200 nM; IC50 [10]: 6000 nM; IC50 [11]: > 10000 nM; IC50 [12]: 3900 nM; IC50 [13]: 2400 nM; IC50 [14]: > 10000 nM; IC50 ([15]; read-out: IC50): 31700 nM; inhibition at 40 µM [17]: 61.9%
12.2 | 26.8 | CC[C@H](Nc1nc(N)nc(N)c1C#N)c1nc2cccc(C#CCCCO)c2c(=O)n1-c1ccccc1 | 
